Values quoted from earlier work as cited in patent US20100028276A1, “SUNSCREEN COMPOSITIONS” (priority 2007, published 2010).

How the values were obtained:
[1] = uterine wet weight, cell height, cell proliferation assays

Compound | effect on growth of cancer cells (cancer cells) | estrogenicity [1]
Cc1ccc(C=C2C(=O)C3(C)CCC2C3(C)C)cc1 (stereo not drawn) [4-methyl-benzylidene camphor, 3-(4-methylbenxylidene) camphor] | made cancer cells grow more rapidly | highly estrogenic
CCCCC(CC)COC(=O)c1ccc(N(C)C)cc1 (stereo not drawn) [octyl-dimethyl-PABA] | made cancer cells grow more rapidly | –
COc1ccc(C(=O)c2ccccc2)c(O)c1 [benzophenone-s, Benzophenone-3] | made cancer cells grow more rapidly | highly estrogenic
CC1CC(OC(=O)c2ccccc2O)CC(C)(C)C1 (stereo not drawn) [homosalate] | made cancer cells grow more rapidly | –
